Values of other authors, collected in US10857210B2, “Compositions and methods to promote wound healing” (Wayne State University, priority 2015, dated 2020).

Experiments:
[1] = system: Tet promoter; conditions: relative to tetracycline

Cc1c2c(c(O)c3c(O)cccc13)C(=O)[C@]1(O)C(=O)C(C(N)=O)=C(O)[C@@H](N(C)C)[C@@H]1C2 [anhydrotetracycline]
solubility in water: fully soluble in water
concentration that activates the Tet promoter, lower than with tetracycline [1]: 2 logs
